Test results taken from patent publication US6608078B2, “Antibacterial chiral 8-(substituted piperidino)-benzo [i,j] quinolizines, processes, compositions and methods of treatment” (Wockhardt Limited, priority 2000, dated 2003).
In brackets after ≈: the same amount, converted by molar mass.

What was measured:
Assay type in all cases: cell-based
[1] = system: MRSA; test: In-vitro antimicrobial test (MIC, NCCLS protocol); conditions: standard NCCLS protocol
Description: (§1) The activity of the compounds of the invention in-vitro can be illustrated as follows:
(§2) The test method was in accordance with the standard NCCLS protocol.

[2] = system: P. aeruginosa; test: In-vitro antimicrobial test (MIC, NCCLS protocol); conditions: standard NCCLS protocol
Description: as §1, §2

[3] = system: VRE; test: In-vitro antimicrobial test (MIC, NCCLS protocol); conditions: standard NCCLS protocol
Description: as §1, §2

[4] = system: E. coli; test: In-vitro antimicrobial test (MIC, NCCLS protocol); conditions: standard NCCLS protocol
Description: as §1, §2

[5] = system: S. pneumoniae; test: In-vitro antimicrobial test (MIC, NCCLS protocol); conditions: standard NCCLS protocol
Description: as §1, §2

[6] = system: streptococcal population; test: % Killing of Streptococci, summary over strains; conditions: exposed to 4×MIC concentrations for 8 hours; depending upon the streptococcal strain
Description: (§3) Comparison of a typical compound of the invention vs S-(−)-9-fluoro-8-(4′-hydroxypiperidin-1-yl)-5-methyl-6,7-dihydro-1-oxo-1H-5H-benzo[i,j]quinolizine-2-carboxylic acid in terms of % Killing of Streptococci
(§4) As against this, a typical compound of the invention, which has an improved bactericidal power againt streptococci, consistently brings about killing of 99% of streptococcal population.

[7] = system: S. salivarius ATCC 13419; test: % Killing of Streptococci at 4 MIC, 8 hrs
Description: as §3, §4

[8] = system: S. pyogenes ATCC 25147; test: % Killing of Streptococci at 4 MIC, 8 hrs
Description: as §3, §4

[9] = system: S. pneumoniae ATCC 6303; test: % Killing of Streptococci at 4 MIC, 8 hrs
Description: as §3, §4

[10] = system: S. sanguis ATCC 10556; test: % Killing of Streptococci at 4 MIC, 8 hrs
Description: as §3, §4

Structure (SMILES)	MIC [1]	MIC [2]	MIC [3]	MIC [4]	MIC [5]	killing of streptococcal population [6]	4 MIC-% Kill at 8 hrs. [7]	4 MIC-% Kill at 8 hrs. [8]	4 MIC-% Kill at 8 hrs. [9]	4 MIC-% Kill at 8 hrs. [10]
CC1CCc2c(N3CCC(O)CC3)c(F)cc3c(=O)c(C(=O)O)cn1c23 (racemic) [Ref. 1, RS(±)-9-fluoro-8-(4′-hydroxypiperidin-1-yl)-5-methyl-6,7-dihydro-1-oxo-1H-5H-benzo[i,j]quinolizine-2-carboxylic acid, reference compound]	1.56 µg/mL (≈ 4.33 µM)	6.25 µg/mL (≈ 17.3 µM)	12.5 µg/mL (≈ 34.7 µM)	0.4 µg/mL (≈ 1.11 µM)	0.4 µg/mL (≈ 1.11 µM)					
C[C@H]1CN(c2c(F)cc3c(=O)c(C(=O)O)cn4c3c2CC[C@@H]4C)CC[C@H]1O (relative stereo) [Compound C, S-(−)-9-fluoro-6,7-dihydro-8-{cis-(−)-4-R-hydroxy-3-S-methylpiperidin-1-yl}-5-methyl-1-oxo-1H,5H-benzo[i,j]quinolizine-2-carboxylic acid]	0.8 µg/mL (≈ 2.14 µM)	6.25 µg/mL (≈ 16.7 µM)	6.25 µg/mL (≈ 16.7 µM)	0.1 µg/mL (≈ 0.267 µM)	0.1 µg/mL (≈ 0.267 µM)					
C[C@@H]1CN(c2c(F)cc3c(=O)c(C(=O)O)cn4c3c2CC[C@@H]4C)CC[C@@H]1O (relative stereo) [Compound D, S-(−)-9-fluoro-6,7-dihydro-8-{cis-(+)-4-S-hydroxy-3-R-methylpiperidin-1-yl}-5-methyl-1-oxo-1H,5H-benzo[i,j]quinolizine-2-carboxylic acid]	0.8 µg/mL (≈ 2.14 µM)	6.25 µg/mL (≈ 16.7 µM)	6.25 µg/mL (≈ 16.7 µM)	0.2 µg/mL (≈ 0.534 µM)	0.8 µg/mL (≈ 2.14 µM)					
C[C@H]1CCc2c(N3CCC(O)CC3)c(F)cc3c(=O)c(C(=O)O)cn1c23 [Ref. 2, S-(−)-9-fluoro-8-(4′-hydroxypiperidin-1-yl)-5-methyl-6,7-dihydro-1-oxo-1H-5H-benzo[i,j]quinolizine-2-carboxylic acid, reference compound]	0.8 µg/mL (≈ 2.22 µM)	3.12 µg/mL (≈ 8.66 µM)	6.25 µg/mL (≈ 17.3 µM)	0.2 µg/mL (≈ 0.555 µM)	0.2 µg/mL (≈ 0.555 µM)	≤ 50%	0%	45.4%	50%	40%
CC1CN(c2c(F)cc3c(=O)c(C(=O)O)cn4c3c2CC[C@@H]4C)CCC1O (stereo partly drawn) [Typical compound of the invention, S-(-)-9-fluoro-6,7-dihydro-8-(4-hydroxy-3-methylpiperidin-1-yl)-5-methyl-1-oxo-1H,5H-benzo[i,j]quinolizine-2-carboxylic acid]						99%	99.7%	98.4%	99.8%	98.6%

More lines, main results first:

MIC [1]	MIC [2]	MIC [3]	MIC [4]	MIC [5]	Structure (SMILES)	killing of streptococcal population [6]	4 MIC-% Kill at 8 hrs. [7]	4 MIC-% Kill at 8 hrs. [8]	4 MIC-% Kill at 8 hrs. [9]	4 MIC-% Kill at 8 hrs. [10]
0.4 µg/mL (≈ 1.07 µM)	3.12 µg/mL (≈ 8.33 µM)	6.25 µg/mL (≈ 16.7 µM)	0.2 µg/mL (≈ 0.534 µM)	0.2 µg/mL (≈ 0.534 µM)	CC1CN(c2c(F)cc3c(=O)c(C(=O)O)cn4c3c2CC[C@@H]4C)CCC1O (mixture of isomers) [Compound A, S-(−)-9-fluoro-6,7-dihydro-8-{trans-4-(RS)-hydroxy-3-(RS)-methylpiperidin-1-yl}-5-methyl-1-oxo-1H,5H-benzo[i,j]quinolizine-2-carboxylic acid]					
0.8 µg/mL (≈ 2.14 µM)	6.25 µg/mL (≈ 16.7 µM)	6.25 µg/mL (≈ 16.7 µM)	0.2 µg/mL (≈ 0.534 µM)	0.2 µg/mL (≈ 0.534 µM)	CC1CN(c2c(F)cc3c(=O)c(C(=O)O)cn4c3c2CC[C@@H]4C)CCC1O (mixture of isomers) [Compound B]					
1.56 µg/mL (≈ 4.02 µM)	>12.5 µg/mL	12.5 µg/mL (≈ 32.2 µM)	0.8 µg/mL (≈ 2.06 µM)	0.2 µg/mL (≈ 0.515 µM)	CCC1CN(c2c(F)cc3c(=O)c(C(=O)O)cn4c3c2CC[C@@H]4C)CCC1O (stereo partly drawn) [Compound E, S-(−)-9-fluoro-6,7-dihydro-8-(3-ethyl-4-hydroxypiperidin-1-yl)-5-methyl-1-oxo-1H,5H-benzo[i,j]quinolizine-2-carboxylic acid]					
